Measurements as given in US6630431B2, “Nail polish lacquer remover” (Board of Trustees of Michigan State University, priority 2001, dated 2003).

Experiments:
[1] = Vapor pressure; format: physicochemical; details: @ 20° C.
Description: The vapor pressure of ethyl lactate is 1.6 mmHg @ 20° C. and for diethyl succinate is 0.2 mmHg @ 20° C. These are very favorable for a nail polish removing lacquer.

[2] = animals; cited from earlier work

Structure (SMILES) | vapor pressure [1] [mmHg] | LD50 data [2]
CCOC(=O)C(C)O (stereo not shown) [ethyl lactate] | 1.6 | very large doses are required to produce toxic results
CCOC(=O)CCC(=O)OCC [diethyl succinate] | 0.2 | very large doses are required to produce toxic results
